Assay results reported in US20010047524A1, “Methods and tissue culture media for inducing somatic embryogenesis, agrobacterium-mediated transformation and efficient regeneration of cacao plants” (priority 1997, published 2001).

Test system: staminode and petal base explants of cacao genotype Sca-6
Assay: Somatic embryogenesis from cacao floral explants cultured on PCG medium containing various concentrations of TDZ
Assay type: cell-based, Theobroma cacao L.
Procedure: Primary callus growth (PCG) medium was prepared by combining the following solutions and compounds (per liter): 100 ml each DKW macro solutions A and B, 10 ml DKW micro solution, 1 ml DKW vitamin solution, 20 g glucose, 250 mg glutamine, 100 mg myo-inositol, 100 ml 2,4-D solution, 10 ml TDZ solution, and 2.0 g phytagel, and the pH was adjusted to 5.8.
The staminodes and petal base explants from the four flower buds were then transferred into a Petri dish containing 30 ml of PCG medium. Any fused staminodes and petal base explants were separated and explants were distributed evenly across the medium. The Petri dishes were sealed with a double layer of parafilm and cultures were maintained in the dark at 25±2° C. for 14 days (FIG. 2a). Growth reduction, senescence, and tissue browning may occur with subculture intervals longer than 14 days.
The staminode and petal base explants were then transferred from a PCG medium to a Petri dish containing 30 ml of SCG medium. The dishes were sealed and the cultures were maintained in the dark for 14 days at 25±2° C. Globular calli were produced on the entire tissue explant at the end of this culture period (FIG. 2b).
Staminode and petal base explants and calli derived in the callus induction step were transferred to Petri dishes containing 30 ml of ED medium. Explants were cultured in the dark for 14 days at 25±2° C. Explants were then subcultured onto the fresh ED medium and maintained in the dark for another 14 days. By that time, numerous somatic embryos at globular and heart-shaped stages of development were visible on the embryogenic calli (FIG. 2c and d).
The effect of TDZ concentration on somatic embryogenesis from staminode explants of five cacao genotypes was determined and is shown in FIG. 3. Staminodes were cultured on PCG medium containing various concentrations of TDZ. […] Data were collected two months after culture initiation. Each treatment contained 20 staminodes per plate with three replicate plates. The values shown in FIG. 3 represent the average percentage rates of embryo-producing staminodes from three repeated experiments. Up to 100% of cultured staminode and over 60% of petal base explants from cacao genotype Sca-6 produced somatic embryos (FIG. 3).
The effect of TDZ concentration on somatic embryo production from staminode explants of five cacao genotypes was determined and is shown in FIG. 4. Staminodes were cultured on PCG medium containing various concentrations of TDZ. […] Data were collected two months after culture initiation. Each treatment contained 20 staminodes per plate with three replica plates. Values represent the average number of somatic embryos per responsive staminode from three repeated experiments. […]

[1] = two months after culture initiation, FIG. 4

Structure (SMILES): O=C(Nc1ccccc1)Nc1cnns1 [TDZ, thidiazuron]
- petal base explants that produced somatic embryos (FIG. 3): over 60%
- cultured staminode explants that produced somatic embryos (PCG medium with various TDZ concentrations, then SCG and ED medium, two months after culture initiation, FIG. 3): Up to 100%
- average number of primary somatic embryos per responsive staminode [1]: about 46
- primary somatic embryos produced by a single staminode explant (maximum) [1]: up to 140
